{"source": "patent US10413535B2", "about": "“Pharmaceutical compositions comprising an integrin ALPHA4 antagonist for use in treating ocular inflammatory conditions” (AXEROVISION, INC., priority 2015, dated 2019)", "tested_on": "IL-1α, MMP-9, CXCL9, TGF-β1 expression", "test": "Inflammatory marker gene expression in cornea and conjunctiva (real time PCR), desiccating stress model", "assay_type": "in vivo, mouse", "settings": "topical 30 mg/mL, 5 days DS, vs vehicle", "method": "Female C57BL/6 mice, aged 6 to 8 weeks, were subjected to DS for 5 days (DS5) as described previously (de Paiva et al., 2006b; Niederkorn et al., 2006). Topical bilateral treatment with 1 eye drop per eye (2 μL volume) or subcutaneous injection (4 μL volume), 2 times per day, was initiated on day 1 concurrently with DS and continued through day 4. Treatment with the compound of formula I or dexamethasone phosphate 0.1% was compared to correspondingly treated vehicle controls. Mice were randomized to receive one of the test articles. Control mice were kept in a non-stressed (NS) environment maintained at 50-75% relative humidity without exposure to airflow or scopolamine and were not treated with test or control article. Treatment effects were assessed on corneal staining with Oregon Green Dextran (OGD); expression of inflammatory markers in ocular surface tissues by real time PCR; cell population analysis in draining cervical lymph nodes by FACS analysis; conjunctival T cell infiltration by immunohistochemistry.\nTotal RNA was isolated from corneal and conjunctival epithelia that was collected and pooled from 2 eyes (right and left) at each time point from untreated control mice, mice subjected to DS for 5 days (DS5), DS5 mice topically treated with the compound of formula I ([…]) and vehicle treated animals (n=7/group) using a PicoPure™ RNA Isolation Kit (Acturus Bioscience Inc, Mountain View, Calif., USA) following the manufacturer's protocol. Briefly, corneal epithelial cells were scraped and whole conjunctiva was cut and placed in 100 μL of extraction buffer and incubated at 42° C. for 30 minutes. The cell extract was loaded onto a preconditioned purified column, which was centrifuged, treated with DNase (Qiagen, Valencia, Calif., USA) and washed twice with two different wash buffers. The RNA was eluded in 12 μL of low ionic strength buffer. The RNA concentration was measured by absorption at 260 nm using a spectrophotometer (NanoDrop 2000, Thermo Scientific, Wilmington, Del., USA) and samples were stored at −80° C. until use. First-strand cDNA was synthesized from 1 μg of total RNA with random hexamers using M-MuLV reverse transcriptase (Ready-To-Go You-Prime First-Strand Beads; Amersham Pharmacia Biotech, Inc., Piscataway, N.J.) as previously described (de Paiva et al., 2006a).\nA cDNA aliquot (1-4 μL) from samples was used for real time PCR in a total volume of 10 μL containing the following per reaction: 0.3 μL of gene specific Taqman probes used and 5 μL of 2× Taqman Fast PCR Master Mix, (Applied Biosystems). Real time PCR was performed on a StepOnePlus™ Real-Time PCR System (Applied Biosystems) and the parameters consisted of pre-denaturation at 95° C. for 22 sec, followed by 40 cycles of denaturation at 95° C. for 1 sec, annealing and extension at 60° C. for 20 sec. Samples and standards were assayed in duplicate. A non-template control and total RNA without retrotranscription were included in all the experiments to evaluate PCR and DNA contamination of the reagents used. The following mouse Taqman probes were used: IL-1α (Mm00439620); MMP-9 (Mm00442991); CXCL9 (Mm004434946); TGF-β1 (Mm00441724) and HPRT-1 (Mm00446968). The HPRT-1 gene was used as an endogenous reference for each reaction. The results of quantitative PCR were analyzed by the comparative CT method where target change=2-ΔΔ CT. The results were normalized by the CT value of HPRT-1 of the untreated control group (de Paiva et al., 2006b).\nDue to skewed distribution of OGD data, the analysis was done on the log 10 scale to make the data more normally distributed. Log 10 OGD data was averaged across two observers and the left and right eyes. The mixed effects ANOVA model included treatment group as a fixed effect and week as a random effect. 95% and 99% confidence intervals were constructed for the disease (5 day DS vs untreated group kept in separate vivarium) and compound treatment effects (treatment vs vehicle). […]", "data": [{"smiles": "Cc1ccccc1OCC(=O)N[C@@H](CC(C)C)C(=O)N[C@@H](Cc1ccc(OC(=O)N2CCC(C(N)=O)CC2)cc1)C(=O)O", "note": "[GW559090, (2S)-3-[4-({[4-(Aminocarbonyl)-1-piperidinyl]carbonyl}oxy)phenyl]-2-[((2S)-4-methyl-2-{[2-(2-methylphenoxy)acetyl]amino}pentanoyl)amino]propanoic acid]", "values": [{"measurement": "CXCL9 transcripts in cornea", "result": "significant decrease"}, {"measurement": "CXCL-9 expression in conjunctiva", "result": "no change"}, {"measurement": "IL-1α expression in conjunctiva", "result": "no change"}, {"measurement": "IL-1α transcripts in cornea", "result": "significant decrease"}, {"measurement": "MMP-9 expression in conjunctiva", "result": "no change"}, {"measurement": "MMP-9 transcripts in cornea", "result": "significant decrease"}, {"measurement": "TGF-β1 expression in conjunctiva", "result": "significant reduction"}, {"measurement": "TGF-β1 transcripts in cornea", "result": "significant decrease"}]}]}
